IC50 data for 21 molecules are collected here from US20260297080A1, “BICYCLIC COMPOUNDS AS CDK INHIBITORS” (BeOne Medicines I GmbH, priority 2022, published 2026).

One assay addresses CDK2/Cyclin E1 (Homo sapiens, UniProt P24941). Kind of assay: CDK2/Cyclin E1 Biochemical Assay (TR-FRET), 0.060 mM ATP. As to conditions: 0.15 μM Rb (Ser780)-biotin substrate, pH7.0, 60 min preincubation, 120 min reaction, room temperature. As to the method: (§1) CDK2/Cyclin E1 and CDK1/Cyclin B1 Biochemical Assays
(§2) Compounds disclosed herein were tested for inhibition of CDK2/Cyclin E1 or CDK1/Cyclin B1 kinase in an assay based on the time-resolved fluorescence-resonance energy transfer (TR-FRET) methodology. The assay was carried out in 384-well low volume black plates in a reaction mixture containing CDK2/Cyclin E1 or CDK1/Cyclin B1, 0.060 mM ATP for CDK2/Cyclin E1 or 0.015 mM ATP for CDK1/Cyclin B1, 0.15 μM Rb (Ser780)-biotin substrate and 0-10 μM compound in buffer containing 50 mM HEPES pH7.0, 0.02% NaN3, 0.01% BSA, 0.1 mM Orthovanadate, 50 mM MgCl2, 1 mM DTT and 0.005% Tween-20. The kinase was incubated with compound for 60 minutes at room temperature and the reaction was initiated by the addition of ATP and Rb (Ser780)-biotin substrate. After reaction at room temperature for 120 minutes, an equal volume of stop/detection solution was added according to the manufacture's instruction (Cisbio Bioassays). The stop/detection solution contained Streptavidin-XL665 and Anti-pRb (Ser780) mAb-Eu Cryptate in Detection buffer (Cisbio Bioassays). Plates were incubated at room temperature for 60 minutes, and the TR-FRET signals (ex337 nm, em665 nm/620 nm) were recorded on a PHERAstar FSX plate reader (BMG Labtech). The inhibition percentage of CDK2/Cyclin E1 or CDK1/Cyclin B1 kinase activity in presence of increasing concentrations of compounds was calculated based on the ratio of fluorescence at 665 nm to that at 620 nm. The IC50 for each compound was derived from fitting the data to the four-parameter logistic equation by Dotmatics.

The target in another assay is CDK1/Cyclin B1 (Homo sapiens, UniProt P06493). The assay can be described thus: CDK1/Cyclin B1 Biochemical Assay (TR-FRET), 0.015 mM ATP. The conditions noted are these: 0.15 μM Rb (Ser780)-biotin substrate, pH7.0, 60 min preincubation, 120 min reaction, room temperature. As to the method:
as §1, §2
In general terms: Time-resolved FRET reads energy transfer from a long-lived donor to a nearby acceptor.

Each structure is given as a SMILES string.

Sequence of CDK1/Cyclin B1 (P06493 whole entry): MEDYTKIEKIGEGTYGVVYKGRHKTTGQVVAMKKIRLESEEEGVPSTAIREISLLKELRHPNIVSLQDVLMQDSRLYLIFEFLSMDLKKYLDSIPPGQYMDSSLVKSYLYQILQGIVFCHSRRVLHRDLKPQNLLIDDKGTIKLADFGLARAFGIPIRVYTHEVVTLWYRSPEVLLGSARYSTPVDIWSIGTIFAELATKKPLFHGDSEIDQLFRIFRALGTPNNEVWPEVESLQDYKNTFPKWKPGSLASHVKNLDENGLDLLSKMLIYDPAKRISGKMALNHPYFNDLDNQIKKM
Sequence of CDK1/Cyclin B1 (P14635 whole entry partner): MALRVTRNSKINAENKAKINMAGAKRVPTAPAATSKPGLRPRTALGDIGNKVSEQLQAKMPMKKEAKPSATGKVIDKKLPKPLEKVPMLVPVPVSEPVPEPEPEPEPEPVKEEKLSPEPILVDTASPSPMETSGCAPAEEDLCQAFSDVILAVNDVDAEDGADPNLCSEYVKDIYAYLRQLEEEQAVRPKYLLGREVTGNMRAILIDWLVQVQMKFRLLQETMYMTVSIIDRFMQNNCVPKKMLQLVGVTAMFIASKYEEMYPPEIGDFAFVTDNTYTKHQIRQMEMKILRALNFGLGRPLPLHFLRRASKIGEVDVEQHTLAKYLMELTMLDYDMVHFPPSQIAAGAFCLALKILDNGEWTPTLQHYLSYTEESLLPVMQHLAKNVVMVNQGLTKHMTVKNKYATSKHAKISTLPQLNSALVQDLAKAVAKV

By IC50 is commonly meant the concentration that gives 50% inhibition. A low value points to higher potency. Turning to `CC(C)NC(=O)O[C@H]1CC[C@@H](c2cc(Nc3cc4c(cc3F)S(=O)(=O)NC4(C)C)n[nH]2)C1` (relative stereo) [Example 14, cis-3-(3-((6-fluoro-3,3-dimethyl-1,1-dioxido-2,3-dihydrobenzo[d]isothiazol-5-yl)amino)-1H-pyrazol-5-yl)cyclopentyl isopropylcarbamate], the IC50 worked out at 30 nM on CDK2/Cyclin E1 and 1090 nM against CDK1/Cyclin B1.
The like results for `COc1cc2c(cc1Nc1cc([C@@H]3CC[C@H](OC(=O)NC(C)C)C3)[nH]n1)CNS2(=O)=O` (relative stereo) [Example 15, cis-3-(3-((6-methoxy-1,1-dioxido-2,3-dihydrobenzo[d]isothiazol-5-yl)amino)-1H-pyrazol-5-yl)cyclopentyl isopropylcarbamate] were, in that order, 23 nM and 1070 nM.
As for `CC(C)NC(=O)O[C@H]1CC[C@@H](c2cc(Nc3ccc4c(c3)S(=O)(=O)NC4=O)n[nH]2)C1` (relative stereo) [Example 16, cis-3-(3-((1,1-dioxido-3-oxo-2,3-dihydrobenzo[d]isothiazol-6-yl)amino)-1H-pyrazol-5-yl)cyclopentyl isopropylcarbamate], the IC50 against CDK2/Cyclin E1 came out at 18 nM; at CDK1/Cyclin B1, 385 nM.
In the case of `CC(C)NC(=O)O[C@H]1CC[C@@H](c2cc(Nc3ccc4c(c3)C(=O)NS4(=O)=O)n[nH]2)C1` (relative stereo) [Example 17, cis-3-(3-((1,1-dioxido-3-oxo-2,3-dihydrobenzo[d]isothiazol-5-yl)amino)-1H-pyrazol-5-yl)cyclopentyl isopropylcarbamate], the IC50 against CDK2/Cyclin E1 came out at 11.8 nM; at CDK1/Cyclin B1 it was 470 nM.
As for `CC(C)NC(=O)O[C@H]1CC[C@@H](c2cc(Nc3ccc4c(c3)CN(c3ccc5c(c3)CNS5(=O)=O)S4(=O)=O)n[nH]2)C1` (relative stereo) [Example 18, cis-3-(3-((1,1,1′,1′-tetraoxido-2′,3′-dihydro-3H-[2,5′-bibenzo[d]isothiazol]-5-yl)amino)-1H-pyrazol-5-yl)cyclopentyl isopropylcarbamate], the values for the IC50 on CDK2/Cyclin E1 and against CDK1/Cyclin B1 were 21.5 nM and 422 nM, respectively.
In the same order, the values of `CC(C)NC(=O)N[C@H]1CC[C@@H](c2cc(Nc3ccc4c(c3)CNS4(=O)=O)n[nH]2)C1` (relative stereo) [Example 19, cis-1-(3-(3-((1,1-dioxido-2,3-dihydrobenzo[d]isothiazol-5-yl)amino)-1H-pyrazol-5-yl)cyclopentyl)-3-isopropylurea] are 305 nM and 1070 nM.
On to `CC(C)NC(=O)O[C@H]1CC[C@@H](c2cc(Nc3cc4c(cc3C(F)(F)F)S(=O)(=O)NC4)n[nH]2)C1` (relative stereo) [Example 20, cis-3-(3-((1,1-dioxido-6-(trifluoromethyl)-2,3-dihydrobenzo[d]isothiazol-5-yl)amino)-1H-pyrazol-5-yl)cyclopentyl isopropylcarbamate], for which the figures for the IC50 against CDK2/Cyclin E1 and on CDK1/Cyclin B1 were 931 nM and more than 10000 nM, respectively.
In the same order, the values of `CC(C)NC(=O)O[C@H]1CC[C@@H](c2cc(Nc3cc4c(cc3C(F)(F)F)S(=O)(=O)NC4(C)C)n[nH]2)C1` (relative stereo) [Example 21, cis-3-(3-((3,3-dimethyl-1,1-dioxido-6-(trifluoromethyl)-2,3-dihydrobenzo[d]isothiazol-5-yl)amino)-1H-pyrazol-5-yl)cyclopentyl isopropylcarbamate] are more than 10000 nM and more than 10000 nM.
The like results for `CC(C)NC(=O)O[C@H]1CC[C@@H](c2cc(Nc3ccc4c(c3C(F)(F)F)CNS4(=O)=O)n[nH]2)C1` (relative stereo) [Example 22, cis-3-(3-((1,1-dioxido-4-(trifluoromethyl)-2,3-dihydrobenzo[d]isothiazol-5-yl)amino)-1H-pyrazol-5-yl)cyclopentyl isopropylcarbamate] were, in that order, 202 nM and more than 10000 nM.
Turning to `COc1cc2c(cc1Nc1cc([C@@H]3CC[C@H](OC(=O)NC(C)C)C3)[nH]n1)C(C)(C)NS2(=O)=O` (relative stereo) [Example 23, cis-3-(3-((6-methoxy-3,3-dimethyl-1,1-dioxido-2,3-dihydrobenzo[d]isothiazol-5-yl)amino)-1H-pyrazol-5-yl)cyclopentyl isopropylcarbamate], the IC50 against CDK2/Cyclin E1 came out at 244 nM; against CDK1/Cyclin B1, 1170 nM.
In the same order, the values of `COc1c(Nc2cc([C@@H]3CC[C@H](OC(=O)NC(C)C)C3)[nH]n2)ccc2c1C(C)(C)NS2(=O)=O` (relative stereo) [Example 24, cis-3-(3-((4-methoxy-3,3-dimethyl-1,1-dioxido-2,3-dihydrobenzo[d]isothiazol-5-yl)amino)-1H-pyrazol-5-yl)cyclopentyl isopropylcarbamate] are 887 nM and 9960 nM.
The like results for `Cc1cc2c(cc1Nc1cc([C@@H]3CC[C@H](OC(=O)NC(C)C)C3)[nH]n1)CNS2(=O)=O` (relative stereo) [Example 25, cis-3-(3-((6-methyl-1,1-dioxido-2,3-dihydrobenzo[d]isothiazol-5-yl)amino)-1H-pyrazol-5-yl)cyclopentyl isopropylcarbamate] were, in that order, 11 nM and 271 nM.
For the molecule `Cc1cc(Nc2cc([C@@H]3CC[C@H](OC(=O)NC(C)C)C3)[nH]n2)cc2c1S(=O)(=O)NC2` (relative stereo) [Example 26, cis-3-(3-((7-methyl-1,1-dioxido-2,3-dihydrobenzo[d]isothiazol-5-yl)amino)-1H-pyrazol-5-yl)cyclopentyl isopropylcarbamate], the IC50 against CDK2/Cyclin E1 turned out to be 2 nM; against CDK1/Cyclin B1 it was 60 nM.
The like results for `CC(C)NC(=O)O[C@H]1CC[C@@H](c2cc(Nc3cc4c(cc3Cl)S(=O)(=O)NC4)n[nH]2)C1` (relative stereo) [Example 27, cis-3-(3-((6-chloro-1,1-dioxido-2,3-dihydrobenzo[d]isothiazol-5-yl)amino)-1H-pyrazol-5-yl)cyclopentyl isopropylcarbamate] were, in that order, 33 nM and 958 nM.
As to `CC(C)NC(=O)O[C@H]1CC[C@@H](c2cc(Nc3cc4c(cc3OC(F)(F)F)S(=O)(=O)NC4)n[nH]2)C1` (relative stereo) [Example 28, cis-3-(3-((1,1-dioxido-6-(trifluoromethoxy)-2,3-dihydrobenzo[d]isothiazol-5-yl)amino)-1H-pyrazol-5-yl)cyclopentyl isopropylcarbamate], the IC50 against CDK2/Cyclin E1 is 1260 nM; against CDK1/Cyclin B1 it was more than 10000 nM.
The like results for `CC(C)NC(=O)O[C@H]1CC[C@@H](c2cc(Nc3cc(F)c4c(c3)CNS4(=O)=O)n[nH]2)C1` (relative stereo) [Example 29, cis-3-(3-((7-fluoro-1,1-dioxido-2,3-dihydrobenzo[d]isothiazol-5-yl)amino)-1H-pyrazol-5-yl)cyclopentyl isopropylcarbamate] were, in that order, 2.2 nM and 113 nM.
In the case of `CC(C)NC(=O)O[C@H]1CC[C@@H](c2cc(Nc3c(F)cc4c(c3F)CNS4(=O)=O)n[nH]2)C1` (relative stereo) [Example 30, cis-3-(3-((4,6-difluoro-1,1-dioxido-2,3-dihydrobenzo[d]isothiazol-5-yl)amino)-1H-pyrazol-5-yl)cyclopentyl isopropylcarbamate], the IC50 against CDK2/Cyclin E1 came out at 7.2 nM; on CDK1/Cyclin B1, 544 nM.
In the same order, the values of `CC(C)NC(=O)O[C@H]1CC[C@@H](c2cc(Nc3cnc4c(c3)CNS4(=O)=O)n[nH]2)C1` (relative stereo) [Example 31, cis-3-(3-((1,1-dioxido-2,3-dihydroisothiazolo[5,4-b]pyridin-5-yl)amino)-1H-pyrazol-5-yl)cyclopentyl isopropylcarbamate] are 7 nM and 166 nM.
The like results for `CC(C)NC(=O)O[C@H]1CC[C@@H](c2cc(Nc3cnc4c(c3)CN(C)S4(=O)=O)n[nH]2)C1` (relative stereo) [Example 32, cis-3-(3-((2-methyl-1,1-dioxido-2,3-dihydroisothiazolo[5,4-b]pyridin-5-yl)amino)-1H-pyrazol-5-yl)cyclopentyl isopropylcarbamate] were, in that order, 21 nM and 424 nM.
In the same order, the values of `CC(C)NC(=O)O[C@H]1CC[C@@H](c2cc(Nc3ccc4c(n3)CNS4(=O)=O)n[nH]2)C1` (relative stereo) [Example 33, cis-3-(3-((1,1-dioxido-2,3-dihydroisothiazolo[4,5-b]pyridin-5-yl)amino)-1H-pyrazol-5-yl)cyclopentyl isopropylcarbamate] are 1.8 nM and 38 nM.
As to `Cc1c(Nc2cc([C@@H]3CC[C@H](OC(=O)NC(C)C)C3)[nH]n2)ccc2c1CNS2(=O)=O` (relative stereo) [Example 34, cis-3-(3-((4-methyl-1,1-dioxido-2,3-dihydrobenzo[d]isothiazol-5-yl)amino)-1H-pyrazol-5-yl)cyclopentyl isopropylcarbamate], the figures for the IC50 on CDK2/Cyclin E1 and at CDK1/Cyclin B1 were 1.9 nM and 81 nM, respectively.
